US8809280B2, “Therapeutic peptides” (Lytix Biopharma AS, priority 2009, dated 2014)
≈ marks a conversion by molar mass, not a printed value. Where “and” joins values, the source holds several entries; their conditions need not be identical. Identical values can stand only once. Like-named read-outs stand apart in the source and are kept apart here. Starred links: 1 amine or outer side, 2 acyl side, 3 side chain; linkers in the order of their positions; H or OH if unused. Non-standard residues stand in square brackets, D forms with d. Residues, ends and D or L forms follow the SMILES beside them. X2 = O=C(C(CCCc1ccccc1)(CCCc1ccccc1)CN[*:1])[*:2]; X5 = O=C(C(CCC1CCCCC1)(CCC1CCCCC1)CN[*:1])[*:2]; X3 = O=C(C(CN[*:1])(Cc1ccccc1)Cc1ccccc1)[*:2]

Columns and labels:
Type in all cases: cell-based
[1] = system: methicillin resistant Staphylococcus epidermidis (ATCC 27626); assay: microbe, parasite or virus in culture; settings: for MIC: Staphylococcus epidermidis, ATCC 27626 / MRSE; for Therapeutic index MRSE: EC50 RBC divided by MIC
Experimental: (§1) The antimicrobial testing was conducted by TosLab A/S (Tromsø, Norway). Each compound was diluted to 1 mg/ml in water and tested in duplicates at 200, 100, 50, 35, 15, 10, 5, 2.5, 1, 0.5 μg/ml except 4n which was tested at 50, 35, 15, 10, 5, 2.5, 1, 0.5 μg/ml due to solubility problems. All tested compounds were di TFA salts.
(§2) The bacterial strains were grown in 2% Bacto Peptone water until exponential growth was achieved. […] A bacterial concentration of 2×10^6 cfu/ml was used. Both negative control (no peptide) and positive control (Gentamicin) was used for all bacterial strains. Growth or no growth was judged by the turbidity of the wells.
Methicillin resistant Staphylococcus epidermidis (ATCC 27626)
(§3) Antimicrobial assays: 200 μg/ml
(§4) Suitable methodologies are described in Example 1.
(§5) Each compound was tested in duplicates at 200, 100, 50, 35, 15, 10, 5, 2.5, 1, 0.5 μg/ml. All tested compounds were di-trifluoroacetic acid salts.

[2] = system: human red blood cells; assay: cells; settings: Erythrocyte, highest concentration tested 1000 μg/ml
Experimental: The hemolytic testing against human erythrocytes was conducted by Lytix Biopharma A/S (Tromso, Norway). Each compound was tested from a concentration of 1 mg/ml and lower, except 4k and 4n which was only tested up to 0.5 mg/ml due to solubility problems. 8 mL of blood was collected from adult healthy male donors. The blood was divided equally and distributed in a commercial available EDTA containing test tube (BD vacutainer, 7.2 mg K2 EDTA) and in a 10 mL reaction vial containing 40 μL of a heparin solution (1000 U/mL in 0.9% sodium chloride). After 30 minutes the hematocrit of the EDTA treated blood was determined. The heparinized blood was centrifuged for 10 minutes at 1500 rpm and the supernatant removed. Subsequently the RBCs were washed with prewarmed PBS three times, and diluted to 10% hematocrit. The compounds dissolved in PBS (concentration 1 μg/mL to 1000 µg/mL) and the erythrocytes were incubated under agitation at 37° C. for one hour. A positive control with an end concentration of 0.1% TRITON X-100 (nonionic surfactant) and a negative control containing pure PBS buffer were included. The samples were centrifuged (4000 rpm) for 5 minutes and the absorption of the supernatant was measured at 405 nm. The values given in Table 1A correspond to 50% hemolysis.
The plasma fraction of heparinized human blood was first removed by centrifugation and three additional washing steps with 37° C. pre-warmed phosphate buffered saline (PBS). Subsequently, the human RBC were diluted to 10% hematocrit and the β^2,2-amino acid derivatives were dissolved in PBS providing concentrations ranging from 1-1000 μg/mL. The diluted RBC were added to the compound solutions to a final erythrocyte concentration of 1% v/v. PBS and TRITON X-100 (non-ionic surfactant), in a final concentration of 0.1% v/v, were included as negative and positive control. After 1 hour agitated incubation at 37° C. the samples were centrifuged at 4000 rpm for 5 min. Release of hemoglobin was determined by measuring the absorbance of the supernatant at 405 nm. Hemolytic activity was calculated as the ratio of treated sample with β^2,2-amino acid derivative and tenside treated sample according to the formula: […]

[3] = system: Escherichia coli (ATTC 25922); assay: microbe, parasite or virus in culture; settings: for MIC: Escherichia coli; for Therapeutic index E. coli: EC50 RBC divided by MIC
Experimental: as §1, §2
Escherichia coli (ATTC 25922)
as §3, §4, §5

[4] = system: methicillin resistant Staphylococcus aureus (ATCC 33591); assay: microbe, parasite or virus in culture; settings: for MIC: Staphylococcus aureus; for Therapeutic index MRSA: EC50 RBC divided by MIC
Experimental: as §1, §2
Methicillin resistant Staphylococcus aureus (ATCC 33591)
as §3, §4, §5

[5] = system: MRC-5; assay: Toxicity assay MRC-5; settings: highest concentration tested 500 μg/ml; for IC50: Homo sapiens, MRC5, Example 2; for Toxicity MRC-5: Example 2
Experimental: Cells for Toxicity Studies Used MRC-5 and human RBC MRC-5 assay: 500 μg/ml

[6] = system: Staphylococcus aureus (ATTC 25923); assay: microbe, parasite or virus in culture; settings: for MIC: Staphylococcus aureus; for Therapeutic index S. aureus: EC50 RBC divided by MIC
Experimental: as §1, §2
Staphylococcus aureus (ATTC 25923)
as §3, §4, §5

[7] = system: A20; assay: cells; settings: for Anti-Cancer Selectivity MRC-5/A20: ratio of MRC-5 to A20 values
Experimental: Cancer Cell Lines A20 or MethA Anticancer assays: 500 μg/ml

[8] = Example 2, values separated by / are repeat tests, read-out: Antimicrobial potency (MIC) MRSE
[9] = Homo sapiens, Example 2, * low solubility in the test media, read-out: Toxicity RBC (EC50)
[10] = Example 2, values separated by / are repeat tests, read-out: Antimicrobial potency (MIC) E. coli
[11] = ATCC 33591 / MRSA, Example 2, values separated by / are repeat tests, read-out: Antimicrobial potency (MIC) MRSA
[12] = Example 2, values separated by / are repeat tests, read-out: Antimicrobial potency (MIC) S. aureus
[13] = Example 2, values separated by / are repeat tests
[14] = Example 4, ATCC 27626, di-trifluoroacetate salts, highest concentration tested 200 μg/ml, read-out: MIC MRSE
[15] = Example 4, hemolytic activity, human red blood cells, read-out: EC50 RBC
[16] = ATCC25922, Example 4, ATCC 25922, di-trifluoroacetate salts, highest concentration tested 200 μg/ml, read-out: MIC E. coli
[17] = ATCC33591, Example 4, ATCC 33591, di-trifluoroacetate salts, highest concentration tested 200 μg/ml, read-out: MIC MTRSA
[18] = ATCC25923, Example 4, ATCC 25923, di-trifluoroacetate salts, highest concentration tested 200 μg/ml, read-out: MIC S. aureus

Compound | MIC [1, 8] [µg/mL] | EC50 [2, 9] [µg/mL] | MIC [3, 10] [µg/mL] | MIC [4, 11] [µg/mL] | IC50 [5] [µg/mL] | MIC [6, 12] [µg/mL] | Toxicity MRC-5 [5] | Anti-Cancer Selectivity MRC-5/A20 [7] | Therapeutic index MRSE [1] | MIC [1, 14] [µM] | EC50 [2, 15] [µM] | Therapeutic index E. coli [3] | MIC [3, 16] [µM] | Therapeutic index MRSA [4] | MIC [4, 17] [µM] | Therapeutic index S. aureus [6] | MIC [6, 18] [µM] | also measured
NCCNC(=O)C(CN)(CCc1ccccc1)CCc1ccccc1 [Compound 5, N-(2-aminoethyl)-2-(aminomethyl)-2-phenethyl-4-phenylbutanamide] | 50 | > 1000 | > 200 | 100 | 21.5 (≈ 63.3 µM) | 100 | – | – | – | – | – | – | – | – | – | – | – | –
Cc1ccc(CC(CN)(Cc2ccc(C)cc2)C(=O)NCCN)cc1 [Compound 8, 3-amino-N-(2-aminoethyl)-2,2-bis(4-methylbenzyl)propanamide] | 100 | > 1000 | > 200 | 100 | 26 (≈ 76.6 µM) | 200 | 44 µg/mL | – | – | – | – | – | – | – | – | – | – | –
COc1cc(CC(CN)(Cc2cc(OC)cc(OC)c2)C(=O)NCCN)cc(OC)c1 [Compound 13, 3-amino-N-(2-aminoethyl)-2,2-bis(3,5-dimethoxy-benzyl)propanamide] | 100 | > 1000 | > 200 | 200 | 62.5 (≈ 145 µM) | 200 | 68 µg/mL | – | – | – | – | – | – | – | – | – | – | –
CC(C)(C)c1cc(CC(CN)(Cc2cc(C(C)(C)C)cc(C(C)(C)C)c2)C(=O)NCCN)cc(C(C)(C)C)c1 [Compound 14, 3-amino-N-(2-aminoethyl)-2,2-bis(3,5-di-tert-butylbenzyl)propanamide] | 2.5 | > 62.5 | – | 2.5 | 7.5 (≈ 14 µM) | 3.75 | 8.5 µg/mL | – | – | – | – | – | – | – | – | – | – | Antimicrobial potency (MIC) MRSE [1, 13]: 5 µg/mL; Antimicrobial potency (MIC) S. aureus [6, 13]: 5 µg/mL
NCCCC[C@@H](N)C(=O)N[C@H](CCCCN)C(=O)N[C@H](Cc1c[nH]c2ccccc12)C(=O)NCC(CCC1CCCCC1)(CCC1CCCCC1)C(=O)N[C@@H](Cc1c[nH]c2ccccc12)C(=O)N[C@@H](CCCCN)C(=O)N[C@@H](CCCCN)C(N)=O [Compound 15, (R)-N-((2R,9S,12S,15S)-9-((1H-indol-3-yl)methyl)-19-amino-12-(4-aminobutyl)-15-carbamoyl-6,6-bis(2-cyclohexylethyl)-1-(1H-indol-3-yl)-3,7,10,13-tetraoxo-4,8,11,14-tetraazanonadecan-2-yl)-6-amino-2-((R)-2,6-diaminohexanamido)hexanamide] (H-[dK][dK][dW][X5]WKK-NH2) | – | – | – | – | – | – | 45.7 µg/mL | 3.0 | – | – | – | – | – | – | – | – | – | Anticancer potency (IC50) A20 [7]: 15.0 µg/mL
NCCCC[C@@H](N)C(=O)N[C@H](CCCCN)C(=O)N[C@H](Cc1c[nH]c2ccccc12)C(=O)NCC(Cc1ccccc1)(Cc1ccccc1)C(=O)N[C@@H](Cc1c[nH]c2ccccc12)C(=O)N[C@@H](CCCCN)C(=O)N[C@@H](CCCCN)C(N)=O [Compound 16, (R)-N-((2R,9S,12S,15S)-9-((1H-indol-3-yl)methyl)-19-amino-12-(4-aminobutyl)-6,6-dibenzyl-15-carbamoyl-1-(1H-indol-3-yl)-3,7,10,13-tetraoxo-4,8,11,14-tetraazanonadecan-2-yl)-6-amino-2-((R)-2,6-diaminohexanamido)hexanamide] (H-[dK][dK][dW][X3]WKK-NH2) | – | – | – | – | – | – | >500 µg/mL | (>1.9) | – | – | – | – | – | – | – | – | – | Anticancer potency (IC50) A20 [7]: 263 µg/mL
NCCCC[C@@H](N)C(=O)N[C@H](CCCCN)C(=O)N[C@H](Cc1c[nH]c2ccccc12)C(=O)NCC(CCCc1ccccc1)(CCCc1ccccc1)C(=O)N[C@@H](Cc1c[nH]c2ccccc12)C(=O)N[C@@H](CCCCN)C(=O)N[C@@H](CCCCN)C(N)=O [Compound 17, (R)-N-((2R,9S,12S,15S)-9-((1H-indol-3-yl)methyl)-19-amino-12-(4-aminobutyl)-15-carbamoyl-1-(1H-indol-3-yl)-3,7,10,13-tetraoxo-6,6-bis(3-phenylpropyl)-4,8,11,14-tetraazanonadecan-2-yl)-6-amino-2-((R)-2,6-diaminohexanamido)hexanamide] (H-[dK][dK][dW][X2]WKK-NH2) | – | – | – | – | – | – | 241 µg/mL and 221 µg/mL | 9.1 and 5.5 | – | – | – | – | – | – | – | – | – | –
CN(C)CCNC(=O)C(CN)(Cc1ccc(C(F)(F)F)cc1)Cc1ccc(C(F)(F)F)cc1 [Entry 6b] | – | – | – | – | – | – | – | – | 22 | 21 | 468 | 9.4 | 50 | 66 | 7.1 | 33 | 14 | –
NCCNC(=O)C(CN)(CCCc1ccccc1)CCCc1ccccc1 [Entry 7a] | – | – | – | – | – | – | – | – | 55 | 25 | 1380 | 4.1 | 336 | 23 | 59 | 19 | 71 | –
NCCNC(=O)C(CN)(Cc1ccc(C(F)(F)F)cc1)Cc1ccc(C(F)(F)F)cc1 [Entry 7b] | – | – | – | – | – | – | – | – | 28 | 15 | 425 | 8 | 52 | 57 | 7.4 | 28 | 15 | –
